Test results from US7479560B2, “Creatine pyroglutamic acid salts and methods for their production and use in individuals” (New Cell Formulations, Ltd., priority 2006, dated 2009).
Where two headings read alike, the source gives them in different places. Blank lines part the entries; values can stand above or below the compound they belong to.

Key:
cerebral ischemia = details: oral administration to experimental animals; cited from earlier work
[1] = assay type: physicochemical; details: for dissolution upon visual inspection: 2 g in 75 ml distilled water, stirred mechanically ~5 min
[2] = pH measurement of 2 g of substance in 75 ml H2O
cognitive function = details: cited from earlier work
[3] = tested on: age-associated memory impairment; details: humans; cited from earlier work

Compound: CN(CC(=O)O)C(=N)N [Creatine, N-methyl-N-guanyl Glycine]
- ischemic brain infarction (cerebral ischemia): remarkable reduction

Compound: CN(CC(=O)O)C(=N)N.O [creatine monohydrate]
- dissolution upon visual inspection ([1]; Experiment 1): did not dissolve very well
- dissolution after lowering pH by adding pyroglutamic acid ([1]; Experiment 1, creatine monohydrate 2 g in 75 ml water, some pyroglutamic acid added): dissolved
- dissolution after 30 min of stirring ([1]; Experiment 2, 2 g in 75 ml distilled H2O, 30 min stirring): still a considerable amount of solids that did not dissolve
- pH of 2 g in 75 ml H2O [2]: ~7.00

- pH of 2 g in 75 ml H2O [2]: ~2.00
Compound: O=C1CC[C@@H](C(=O)O)N1 [pyroglutamic acid, L-pyroglutamic acid]
- cognitive function in rats (cognitive function): improve
- age-associated memory impairment [3]: improves

Compound: (2-(1-methylguanidino)acetyl)oxonium (S)-5-oxopyrrolidine-2-carboxylate [creatine pyroglutamate]
- dissolution upon visual inspection ([1]; Experiment 1): dissolved completely
- time to complete dissolution of crystals ([1]; Experiment 2, 2 g in 75 ml distilled H2O, stirred): ≤ 5 min
- pH of 2 g in 75 ml H2O ([2]; listed as product obtained in Experiment 2): 3.09
- pH of 2 g in 75 ml H2O ([2]; listed as unwashed product): ~3.00
